Test results published in paper PMC3769975 (ChemMedChem, 2012).
In brackets after ≈: the same amount, converted by molar mass. Read-outs that look alike come from different tables or passages of the source.

Columns and labels:
[1] = system: WSN-Ren luciferase virus (influenza A/WSN/33) in MDCK-HA cells; assay: microbe, parasite or virus in culture; type: cell-based, influenza A/WSN/33 (H1N1)
[2] = target: recombinant neuraminidase N1 (A/California/04/09) (Influenza A virus (A/California/04/2009(H1N1)), UniProt C3W5S3); assay: Fluorescent neuraminidase assay; type: biochemical, influenza A/California/04/09; settings: serial dilutions from 100 μM to 6.4 nM
[3] = system: MDCK-HA cell line
[4] = system: WSN-Ren luciferase virus in MDCK-HA cells; type: cell-based, influenza A/WSN/33 (H1N1)
[5] = 1D proton NMR solubility experiment; type: physicochemical; settings: PBS with 2% DMSO, aqueous buffer, kinetic from dmso stock
[6] = system: wild type influenza A/WSN/33 virus in A549 cells; assay: qRT-PCR of viral NP mRNA, A549 cells infected with wild type WSN virus; type: cell-based, influenza A/WSN/33 (H1N1); settings: 10 μM, 1 μM and 0.1 μM
[7] = system: panel of 13 kinases; assay: Kinase panel inhibition; type: biochemical; settings: concentrations up to 5 μM

SMILES	anti-influenza activity (in words, SAR discussion) [1]	EC50 ([1]; Influenza A virus, WSN)	also measured
Cc1cc2cc(CNCCO)c(=O)[nH]c2cc1C [Compound 6, 3-((2-hydroxyethylamino)methyl)-6,7-dimethylquinolin-2(1H)-one]	did not elicit any anti-influenza activity	> 100000 nM	–
CCC(C)(C)n1nnnc1C(C(C)C)N(CCO)Cc1cc2cc(C)c(C)cc2[nH]c1=O (stereo not shown) [Compound 7, 3-(((2-hydroxyethyl)(2-methyl-1-(1-tert-pentyl-1H-tetrazole-5-yl)propyl)amino)methyl)-6,7-dimethylquinolin-2(1H)-one]	–	45.6 nM	activity against neuraminidase [2]: ineffective; cytotoxicity profile [3]: good cytotoxicity profile; viral NP mRNA expression compared to DMSO treated controls [4]: reduction of the NP mRNA expression; viral replication (NP mRNA) after 26 hour incubation ([4]; 10 μM): minimal viral replication; solubility [5]: 10 to 15 µM (≈ 4.41 to 6.61 µg/mL); viral NP mRNA expression levels [6]: reduced NP mRNA expression levels in a dose dependent matter; inhibition of selected kinases [7]: did not significantly inhibit
CCC(C)(C)n1nnnc1C(NCc1cc2cc(C)c(C)cc2[nH]c1=O)C(C)C (stereo not shown) [Compound 23, 6,7-dimethyl-3-(((2-methyl-1-(1-(tert-pentyl)-1H-tetrazole-5-yl)propyl)amino)methyl)quinolin-2(1H)-one]	inactivation	> 100000 nM	–
Cc1cc2cc(CNC(=O)c3ccccc3)c(=O)[nH]c2cc1C [Compound 24, N-((6,7-dimethyl-2-oxo-1,2-dihydroquinolin-3-yl)methyl)benzamide]	not sufficient	> 100000 nM	–
CCC(C)(C)n1nnnc1C(C(C)C)N(Cc1cc2cc(C)c(C)cc2[nH]c1=O)CC1CCCO1 (stereo not shown) [Compound 25, 6,7-dimethyl-3-(((2-methyl-1-(1-(tert-pentyl)-1H-tetrazol-5-yl)propyl)((tetrahydrofuran-2-yl)methyl)amino)methyl)quinolin-2(1H)-one]	low micromolar range	~3000 nM	EC50 [1]: 2950 nM
CCOC(=O)C1=C[C@@H](OC(CC)CC)[C@H](NC(C)=O)[C@@H](N)C1 [oseltamivir phosphate, reference compound]	–	~0.5 nM	potency relative to best compounds of Table 1 [1]: roughly 100 fold
